We go through 2 substances from patent publication US11732029B2, “Methods and compositions for the treatment of wounds” (The University of Chicago, priority 2017, dated 2023).

One test deals with human lung fibroblasts. Briefly: Cell adhesion assay on vWF HBD coated plates. The settings on record: 1 μg/mL vWF HBD coated plates. It is filed as cell-based. As to the method:
Cell adhesion assays were performed using starved human lung fibroblasts (Lonza) in FGM-2 medium (Lonza) with or without 5 mM EDTA. Cells were plated at 3000 cells/well on 1 μg/mL vWF HBD pre-coated 96-well plates (non-tissue culture treated, Greiner Bio-one) and incubated for 30 min at 37° C. Then, the medium was removed, and wells were further washed three times with new FGM-2 medium. Cell numbers were quantified using a CyQUANT assay (Invitrogen).

Test [1] relates to full-thickness back-skin wounds in db/db mice. Briefly: Mouse diabetic skin wound healing model, histomorphometric analysis. It is filed as in vivo. The settings on record: fibrin matrix, 100 ng VEGF-A165 and 50 ng PDGF-BB, after 7 d, vs fibrin alone. As to the method: Histomorphometric analyses were performed as previously reported. Briefly, an area of 8 mm in diameter, which includes the complete epithelial margins, was excised. Wounds were fixed with 2% PFA and cut in the center into two and embedded into paraffin. Histological analysis was performed on 5 μm serial sections. Images were captured with an EVOS FL Auto microscope (Life Technologies). The extent of re-epithelialization and granulation tissue formation were measured by histomorphometric analysis of tissue sections (H&E staining) using ImageJ software. For analysis of re-epithelialization, the distance that the epithelium had traveled across the wound was measured; the muscle edges of the panniculus carnosus were used as an indicator for the initial wound edges, and re-epithelialization was calculated as the percentage of the distance of edges of the panniculus carnosus muscle. For granulation tissue quantification, the area covered by a highly cellular tissue was determined.
Diabetic skin wound healing assays were performed in the mouse as previously reported. Briefly, C57BLKS/J-m/Lepr db (db/db) male mice were 10 to 12 wk old at the start of the experiments. Their backs were shaved and four full-thickness punch biopsy wounds (6 mm in diameter) were created in each mouse. […]

For test [2], the system named is human umbilical vein endothelial cells (HUVEC). Briefly: Cell proliferation assay with vWF HBD, HUVEC. The test is classed as cell-based. The settings on record: vWF HBD coated plates, 72 hrs. As to the method:
Cell proliferation assays were performed as previously reported1. Briefly, human lung fibroblasts (Lonza) were cultured using FGM-2 medium (Lonza) (1000 cells/well) or human umbilical vein endothelial cells (HUVEC, Lonza) were cultured using EGM-2 medium (Lonza) (1000 cells/well) on 1 μg/mL vWF HBD pre-coated 96-well plates (Tissue culture treated, Falcon). Cell numbers were quantified after 72 hrs using a CyQUANT assay (Invitrogen).

For the next test, the system named is VEGF-A. Briefly: vWF binding to VEGF-A in human serum (sandwich ELISA, immunoprecipitation and Western blotting). The settings on record: two lots of pooled serum from healthy donors. On the procedure: One mL of human serum was immunoprecipitated with 10 μg of monoclonal rabbit anti-human vWF antibody (SinoBiological) or control rabbit IgG (EMD Millipore) and 50 μL of protein G-agarose (Thermo Fisher Scientific) overnight at 4° C. The resulting pellet was dissolved in Laemmli buffer and subjected to Western blot analysis. Western blot analysis was performed after SDS-PAGE (4-20% gradient gel, Bio-Rad) and transfer onto MS nitrocellulose membranes (Membrane Solutions). GFs were detected using 1 μg/mL biotinylated antibodies for human VEGF-A (R & D Systems), followed by incubation with HRP conjugated streptavidin (R & D Systems) at 1:200 dilutions. The proteins were detected and visualized with the ECL Plus Western Blotting Detection System (GE Healthcare).
The study was approved by the ethics committees of the Hammersmith, Queen Charlotte's, and Royal Marsden hospitals; informed consent was obtained from all individuals in accordance with the Declaration of Helsinki. ELISA plates (med-binding) were coated with 10 μg/mL rabbit monoclonal anti-human vWF antibody (clone: 111, SinoBiological). […] The antibodies were detected by streptavidin-HRP (R & D Systems). Color development and the absorbance measurement were done as described above.
For orientation: In an ELISA, binding on a coated surface is turned into a signal by an enzyme label.

For YIGLKDRKRPSELRRIASQVKYAC [vWF HBD], the “fibroblast attachment with EDTA” value with human lung fibroblasts (5 mM EDTA) was “inhibited”. Moreover, the fibroblast attachment entry with human lung fibroblasts (30 min, without EDTA) is recorded as “significantly enhanced fibroblast attachment”. Further, in test [1], the granulation tissue result is listed as “did not differ” and the wound closure entry is recorded as “did not differ”. In addition, the endothelial proliferation entry in test [2] was “did not affect endothelial proliferation”.
As to “vWF: human plasma-derived von Willebrand factor (EMD Millipore)”, the “vWF binding to VEGF-A in pooled human serum” value in the test with VEGF-A is listed as “binds to VEGF-A”.
